Measurements taken from patent US20030207872A1, “OMEGA-CARBOXYARYL SUBSTITUTED DIPHENYL UREAS AS RAF KINASE INHIBITORS” (BAYER CORPORATION, priority 2002, published 2003).

melting point: 228 to 230 °C
SMILES: COC(=O)c1ccc(Oc2ccc(NC(=O)Nc3ccc(Cl)c(C(F)(F)F)c3)cc2)cn1 [Entry 55, N-(4-chloro-3-(trifluoromethyl)phenyl)-N′-(4-(2-(methoxycarbonyl)-5-pyridyloxy)phenyl) urea]
